In general, IC50 refers to the midpoint of a concentration-inhibition curve. The term inhibition denotes how much of the control response was suppressed.

The text below walks through data of US20080207677A1, “Napthyridine Compounds As Rock Inhibitors” (GPC BIOTECH AG, priority 2004, published 2008).

Experiment [1] concerns the target T1, recombinant human ROCK2 (amino acids 1-530, aminoterminal 6×His tag) (Homo sapiens, UniProt O75116).
T1 construct: recombinant human ROCK2 (amino acids 1-530, aminoterminal 6×His tag); 6xHis (N)
In words: Determination of ROCK kinase activity, IMAP assay, ROCK2 human. The settings on record: for IC50: in vitro kinase assay, ATP 34.8 μM; for inhibition at 10 µM: % inhibition of the protein kinase ROCK2 at a concentration of 10 μM. It counts as biochemical. As to the method: (§1) Determination of ROCK Kinase Activity
(§2) IC50 values for the various compounds were determined with recombinant human ROCK1 (amino acids 1-555, aminoterminal 6×His tag) and recombinant human ROCK2 (amino acids 1-530, aminoterminal 6×His tag) under the following reaction conditions:
• 11) Add 6 μl 8/6 fold concentrated Substrate+8/6 fold concentrated ATP in 1 fold concentrated Reaction Buffer to each well of Assay Plate • 12) Add 10.8 nl 740 fold concentrated Inhibitor in 100% DMSO to each well except to C− and C+ wells using pintool • 13) Add 10.8 nl 100% DMSO to C− and C+ wells using pintool • 14) Add 2 μl Reaction Buffer to C− wells • 15) Add 2 μl 4 fold concentrated Kinase in Reaction Buffer to each well except C− wells • 16) Incubate according to Reaction Time at room temperature • 17) Add 15 μl IMAP Binding Solution to each well • 18) Incubate according to IMAP Incubation Time at room temperature • 19) Measure Fluorescence Polarization • 20) Measure Fluorescence Intensity

Experiment [2] concerns the target T2, recombinant human ROCK1 (amino acids 1-555, aminoterminal 6×His tag) (Homo sapiens, UniProt Q13464).
T2 construct: recombinant human ROCK1 (amino acids 1-555, aminoterminal 6×His tag); 6xHis (N)
In words: Determination of ROCK kinase activity, IMAP assay, ROCK1 human. In kind it is biochemical. The following applies: in vitro kinase assay, ATP 38.9 μM. As to the method:
as §1, §2
• 1) Add 6 μl 8/6 fold concentrated Substrate+8/6 fold concentrated ATP in 1 fold concentrated Reaction Buffer to each well of Assay Plate • 2) Add 10.8 nl 740 fold concentrated Inhibitor in 100% DMSO to each well except to C− and C+ wells using pintool • 3) Add 10.8 nl 100% DMSO to C− and C+ wells using pintool • 4) Add 2 μl Reaction Buffer to C− wells • 5) Add 2 μl 4 fold concentrated Kinase in Reaction Buffer to each well except C− wells • 6) Incubate according to Reaction Time at room temperature • 7) Add 15 μl IMAP Binding Solution to each well • 8) Incubate according to IMAP Incubation Time at room temperature • 9) Measure Fluorescence Polarization • 10) Measure Fluorescence Intensity

T2 sequence (Q13464 1-555): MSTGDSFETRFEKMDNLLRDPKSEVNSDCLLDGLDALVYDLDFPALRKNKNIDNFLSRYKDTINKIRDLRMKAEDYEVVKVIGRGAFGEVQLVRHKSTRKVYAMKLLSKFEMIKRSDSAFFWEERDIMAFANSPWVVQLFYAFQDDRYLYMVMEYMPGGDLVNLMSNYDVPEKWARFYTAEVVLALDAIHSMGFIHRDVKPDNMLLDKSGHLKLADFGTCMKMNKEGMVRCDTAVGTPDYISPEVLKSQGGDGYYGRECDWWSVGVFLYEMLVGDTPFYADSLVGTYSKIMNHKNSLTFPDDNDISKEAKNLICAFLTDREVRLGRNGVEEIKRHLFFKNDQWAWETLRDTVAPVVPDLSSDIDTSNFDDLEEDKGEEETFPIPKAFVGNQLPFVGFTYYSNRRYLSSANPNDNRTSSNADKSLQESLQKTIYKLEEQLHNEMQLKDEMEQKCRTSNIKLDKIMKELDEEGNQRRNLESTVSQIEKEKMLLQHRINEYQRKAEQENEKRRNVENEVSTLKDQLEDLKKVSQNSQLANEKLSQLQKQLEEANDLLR
T1 sequence (O75116 1-530): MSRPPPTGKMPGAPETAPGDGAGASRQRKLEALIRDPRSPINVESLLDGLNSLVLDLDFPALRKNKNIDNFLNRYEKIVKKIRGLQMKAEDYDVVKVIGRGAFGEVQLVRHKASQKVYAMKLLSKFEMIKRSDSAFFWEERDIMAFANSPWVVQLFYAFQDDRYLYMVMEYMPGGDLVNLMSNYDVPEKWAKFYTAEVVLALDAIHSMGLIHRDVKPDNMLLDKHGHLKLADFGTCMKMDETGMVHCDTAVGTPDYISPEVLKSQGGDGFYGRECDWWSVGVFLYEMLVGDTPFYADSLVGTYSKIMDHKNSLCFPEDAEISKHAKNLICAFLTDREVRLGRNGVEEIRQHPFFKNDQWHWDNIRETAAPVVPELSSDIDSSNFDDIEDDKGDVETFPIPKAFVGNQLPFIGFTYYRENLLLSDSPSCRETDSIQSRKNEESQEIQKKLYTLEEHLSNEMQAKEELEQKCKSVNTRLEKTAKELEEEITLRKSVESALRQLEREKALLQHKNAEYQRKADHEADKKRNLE

Turning to `C[C@@H](NC(=O)c1ccc2cnccc2n1)c1ccc(Cl)cc1` [(R)-[1,6]Naphthyridine-2-carboxylic acid 1-(4-chloro-phenyl)-ethylamide], the half-inhibitory concentration (IC50) in experiment [1] is 360 nM. Take `Cc1ccc([C@@H](C)NC(=O)c2ccc3cnccc3n2)cc1` [(R)-[1,6]Naphthyridine-2-carboxylic acid 1-(4-methylphenyl)-ethylamide]: the IC50 in experiment [1] amounted to 410 nM.

Consider `C[C@@H](NC(=O)c1ccc2cnccc2n1)c1ccc2ccccc2c1` [(R)-[1,6]Naphthyridine-2-carboxylic acid 1-(naphth-2-yl)-ethylamide], for which the figures for the half-inhibitory concentration (IC50) in experiment [1] and in experiment [2] were 880 nM and 2320 nM, respectively. In the case of `CC[C@@H](NC(=O)c1ccc2cnccc2n1)c1ccccc1` [(R)-[1,6]Naphthyridine-2-carboxylic acid 1-phenyl-propylamide], the IC50 in experiment [1] amounted to 160 nM.

Take `NC(=O)[C@H](Cc1ccccc1)NC(=O)c1ccc2cnccc2n1` [(S)-[1,6]Naphthyridine-2-carboxylic acid (1-carbamoyl-2-phenyl-ethyl)-amide]: the results for the half-inhibitory concentration (IC50) in experiment [1] and in experiment [2] were 5640 nM and 8160 nM, respectively. With `NC(=O)[C@H](Cc1ccc(O)cc1)NC(=O)c1ccc2cnccc2n1` [(S)-[1,6]Naphthyridine-2-carboxylic acid [1-carbamoyl-2-(4-hydroxy-phenyl)-ethyl]-amide], the IC50 in experiment [1] stood at 4260 nM; in experiment [2], 6830 nM. Consider `O=C(NCc1cccc(Br)c1)c1ccc2cnccc2n1` [Compound 1, [1,6]Naphthyridine-2-carboxylic acid 3-bromo-benzylamide], for which, in experiment [1], the inhibition at 10 µM is 87% and the IC50 came out at 1040 nM. Also, in experiment [2], the IC50 was 910 nM.

On to `O=C(NCc1ccccc1F)c1ccc2cnccc2n1` [Compound 2, [1,6]Naphthyridine-2-carboxylic acid 2-fluoro-benzylamide], for which the IC50 in experiment [1] is 2080 nM; in experiment [2] it was 790 nM.

As for `O=C(NCc1ccc(Br)cc1)c1ccc2cnccc2n1` [Compound 3, [1,6]Naphthyridine-2-carboxylic acid 4-bromo-benzylamide], the IC50 was 1330 nM in experiment [1] and 1370 nM in experiment [2]. As to `CC(NC(=O)c1ccc2cnccc2n1)c1ccccc1` (stereo not drawn) [Compound 4, [1,6]Naphthyridine-2-carboxylic acid (1-phenyl-ethyl)-amide], the inhibition at 10 µM in experiment [1] came to 81%. For the same compound, the IC50 was found to be 1590 nM in experiment [1] and 710 nM in experiment [2]. In the case of `NC(=O)C(Cc1ccccc1)NC(=O)c1ccc2cnccc2n1` (stereo not drawn) [Compound 5, [1,6]Naphthyridine-2-carboxylic acid (1-carbamoyl-2-phenyl-ethyl)-amide], the inhibition at 10 µM in experiment [1] worked out at 62%. Same read-out and setting: the figure for `NC(=O)C(Cc1ccc(Cl)cc1)NC(=O)c1ccc2cnccc2n1` (stereo not drawn) [Compound 6, [1,6]Naphthyridine-2-carboxylic acid [1-carbamoyl-2-(4-chloro-phenyl)-ethyl]-amide] is 65%. In the case of `C[C@@H](NC(=O)c1ccc2cnccc2n1)c1ccccc1` [Compound 7, [1,6]Naphthyridine-2-carboxylic acid ((R)-1-phenyl-ethyl)-amide], in experiment [1], the inhibition at 10 µM was 88% and the IC50 is 920 nM. Further, in experiment [2], the IC50 came to 1130 nM.

In the case of `C[C@H](NC(=O)c1ccc2cnccc2n1)c1ccccc1` [Compound 8, [1,6]Naphthyridine-2-carboxylic acid ((S)-1-phenyl-ethyl)-amide], the inhibition at 10 µM in experiment [1] stood at 37%. `CCC(NC(=O)c1ccc2cnccc2n1)c1cccc(Cl)c1` (stereo not drawn) [[1,6]Naphthyridine-2-carboxylic acid 1-(3-chlorophenyl)-propylamide]: the IC50 in experiment [1] turned out to be 380 nM; in experiment [2], 300 nM.

Turning to `CC(NC(=O)c1ccc2cnccc2n1)c1ccc(Br)cc1` (stereo not drawn) [[1,6]Naphthyridine-2-carboxylic acid 1-(4-bromo-phenyl)-ethylamide], the IC50 in experiment [1] turned out to be 890 nM; in experiment [2], 970 nM.

Regarding `CC(NC(=O)c1ccc2cnccc2n1)c1ccc(Cl)cc1` (stereo not drawn) [[1,6]Naphthyridine-2-carboxylic acid 1-(4-chlorophenyl)-ethylamide], the IC50 in experiment [1] came to 770 nM; in experiment [2], 1100 nM. For `CCC(NC(=O)c1ccc2cnccc2n1)c1ccc(Cl)cc1` (stereo not drawn) [[1,6]Naphthyridine-2-carboxylic acid 1-(4-chlorophenyl)-propylamide], in that order: 480 nM and 1260 nM. For `CC(NC(=O)c1ccc2cnccc2n1)c1ccc(F)cc1` (stereo not drawn) [[1,6]Naphthyridine-2-carboxylic acid 1-(4-fluorophenyl)-ethylamide], in that order: 340 nM and 940 nM. Consider `COc1ccc(C(C)NC(=O)c2ccc3cnccc3n2)cc1` (stereo not drawn) [[1,6]Naphthyridine-2-carboxylic acid 1-(4-methoxyphenyl)-ethylamide], for which, in experiment [1], the IC50 was 10700 nM. For the compound `Cc1ccc(C(C)NC(=O)c2ccc3cnccc3n2)cc1` (stereo not drawn) [[1,6]Naphthyridine-2-carboxylic acid 1-(4-methylphenyl)-ethylamide], the values for the IC50 in experiment [1] and in experiment [2] were 1410 nM and 1290 nM, respectively. For the compound `CCC(NC(=O)c1ccc2cnccc2n1)c1ccc(C)cc1` (stereo not drawn) [[1,6]Naphthyridine-2-carboxylic acid 1-(4-methylphenyl)-propylamide], the IC50 in experiment [1] worked out at 1260 nM; in experiment [2], 790 nM. Consider `CCC(NC(=O)c1ccc2cnccc2n1)c1cccs1` (stereo not drawn) [[1,6]Naphthyridine-2-carboxylic acid 1-(thiophen-2-yl)-propylamide], for which the IC50 in experiment [1] is 1010 nM.

Turning to `CC(NC(=O)c1ccc2cnccc2n1)c1ccsc1` (stereo not drawn) [[1,6]Naphthyridine-2-carboxylic acid 1-(thiophen-3-yl)-ethylamide], in experiment [1], the IC50 was 1910 nM. Consider `CCC(NC(=O)c1ccc2cnccc2n1)c1ccccc1` (stereo not drawn) [[1,6]Naphthyridine-2-carboxylic acid 1-phenyl-propylamide], for which the IC50 in experiment [1] amounted to 500 nM; in experiment [2], 660 nM. As to `O=C(NCCc1ccc(Br)cc1)c1ccc2cnccc2n1` [[1,6]Naphthyridine-2-carboxylic acid 2-(4-bromo-phenyl)-ethylamide], the IC50 in experiment [1] came out at 1520 nM; in experiment [2] it was 1500 nM.

On to `O=C(NCCc1ccc(Cl)cc1)c1ccc2cnccc2n1` [[1,6]Naphthyridine-2-carboxylic acid 2-(4-chloro-phenyl)-ethylamide], for which the IC50 was found to be 5700 nM in experiment [1] and 1910 nM in experiment [2]. `O=C(NCc1ccccc1Br)c1ccc2cnccc2n1` [[1,6]Naphthyridine-2-carboxylic acid 2-bromo-benzylamide]: the half-inhibitory concentration (IC50) was found to be 7230 nM in experiment [1] and 2240 nM in experiment [2]. For `O=C(NCc1ccccc1Cl)c1ccc2cnccc2n1` [[1,6]Naphthyridine-2-carboxylic acid 2-chloro-benzylamide], in that order: 3830 nM and 4770 nM. On to `CCOc1ccccc1CNC(=O)c1ccc2cnccc2n1` [[1,6]Naphthyridine-2-carboxylic acid 2-ethoxy-benzylamide], for which the 50% inhibitory concentration (IC50) in experiment [1] came to 13000 nM. Take `O=C(NCc1cccc(Cl)c1)c1ccc2cnccc2n1` [[1,6]Naphthyridine-2-carboxylic acid 3-chloro-benzylamide]: the IC50 amounted to 2570 nM in experiment [1] and 610 nM in experiment [2]. With `COc1cccc(CNC(=O)c2ccc3cnccc3n2)c1` [[1,6]Naphthyridine-2-carboxylic acid 3-methoxy-benzylamide], the IC50 in experiment [1] worked out at 3100 nM; in experiment [2], 3340 nM. With `O=C(NCc1ccc(Cl)cc1)c1ccc2cnccc2n1` [[1,6]Naphthyridine-2-carboxylic acid 4-chloro-benzylamide], the IC50 turned out to be 2110 nM in experiment [1] and 2050 nM in experiment [2]. As to `COc1ccc(CNC(=O)c2ccc3cnccc3n2)cc1` [[1,6]Naphthyridine-2-carboxylic acid 4-methoxy-benzylamide], the IC50 was found to be 5120 nM in experiment [1] and 6040 nM in experiment [2]. With `Cc1ccc(CNC(=O)c2ccc3cnccc3n2)cc1` [[1,6]Naphthyridine-2-carboxylic acid 4-methyl-benzylamide], the half-inhibitory concentration (IC50) was determined as 2230 nM in experiment [1] and 1280 nM in experiment [2]. In the same order, the values of `O=C(NCc1ccc2c(c1)OCO2)c1ccc2cnccc2n1` [[1,6]Naphthyridine-2-carboxylic acid (benzo[1,3]dioxol-5-ylmethyl)-amide] are 1870 nM and 1460 nM. Take `O=C(NCc1ccccc1)c1ccc2cnccc2n1` [[1,6]Naphthyridine-2-carboxylic acid benzylamide]: the IC50 in experiment [1] worked out at 7680 nM; in experiment [2], 3150 nM.

Take `O=C(NCc1cccs1)c1ccc2cnccc2n1` [[1,6]Naphthyridine-2-carboxylic acid thiophen-2-yl-methylamide]: the IC50 in experiment [1] came to 7840 nM; in experiment [2] it was 1970 nM.
